Experimental data reported in the NIST ThermoML archive (doi:10.1021/je800375t).

Settings: Liquid

COC [dimethyl ether]
Settings	vapor or sublimation pressure [kPa]
213.08 K	16.46
218.11 K	22.24
223.15 K	29.61
228.06 K	38.64
233.09 K	49.96
238.11 K	63.84
243.07 K	80.36
248.12 K	100.43
253.12 K	124.09
258.13 K	152.4
263.13 K	184.96
268.13 K	222.7
273.17 K	266.5
278.17 K	316.12
283.16 K	372.9
288.13 K	436.69
293.17 K	509.01
298.08 K	588.17
298.78 K	600.51
303.15 K	679.68
303.78 K	691.56
308.13 K	778.92
313.17 K	889.98
318.16 K	1011.5
323.17 K	1144.7
328.16 K	1290.2
333.17 K	1449.2
338.17 K	1621.5
343.16 K	1809.1
348.16 K	2012.4
353.16 K	2232.3
358.16 K	2468.9
363.16 K	2723.3
368.14 K	2996.4
373.14 K	3291.2
378.15 K	3608.6
383.15 K	3948.6
388.16 K	4313.9
393.16 K	4706.2
